Key:
[1] = target: human PTPN1 (1-435) (Homo sapiens (Human), UniProt P18031); assay: Human PTPN1 Biochemical Assay; settings: DiFMUP substrate, read-out: PTP1B IC50
Outline: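 Read-out is DiFMUP hydrolysis fluorescence (360 nm excitation, 460 nm emission) after 1 h at room temperature, following 30 min enzyme–compound preincubation.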

[2] = target: human PTPN2 (1-387) (Homo sapiens (Human), UniProt P17706); assay: Human PTPN2 Biochemical Assay; settings: DiFMUP substrate
Outline: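 Human PTPN2 (1-387) preincubated 30 min at RT with compound (10-point 3-fold series) in Tris pH 7.4 buffer with 0.5 mM DTT, then DiFMUP substrate added for 1 h at RT. Fluorescence at ex 360/em 460 nm, normalised to no-enzyme and enzyme controls; EC50 from 4-parameter fit.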

Chain of human PTPN1 (1-435) (P18031 whole entry): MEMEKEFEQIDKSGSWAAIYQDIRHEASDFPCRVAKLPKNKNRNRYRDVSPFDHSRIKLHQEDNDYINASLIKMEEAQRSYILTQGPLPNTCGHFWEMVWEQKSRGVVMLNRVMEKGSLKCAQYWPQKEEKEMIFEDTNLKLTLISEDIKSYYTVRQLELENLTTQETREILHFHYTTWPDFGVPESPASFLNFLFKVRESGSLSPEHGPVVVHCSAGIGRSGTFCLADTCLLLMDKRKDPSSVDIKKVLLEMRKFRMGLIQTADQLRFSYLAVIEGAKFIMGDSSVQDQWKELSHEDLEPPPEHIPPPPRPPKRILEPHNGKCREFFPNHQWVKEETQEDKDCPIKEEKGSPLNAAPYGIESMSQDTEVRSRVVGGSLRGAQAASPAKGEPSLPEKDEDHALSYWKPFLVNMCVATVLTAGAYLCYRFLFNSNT
Chain of human PTPN2 (1-387) (P17706 other isoform, or with tags, fused parts or gaps): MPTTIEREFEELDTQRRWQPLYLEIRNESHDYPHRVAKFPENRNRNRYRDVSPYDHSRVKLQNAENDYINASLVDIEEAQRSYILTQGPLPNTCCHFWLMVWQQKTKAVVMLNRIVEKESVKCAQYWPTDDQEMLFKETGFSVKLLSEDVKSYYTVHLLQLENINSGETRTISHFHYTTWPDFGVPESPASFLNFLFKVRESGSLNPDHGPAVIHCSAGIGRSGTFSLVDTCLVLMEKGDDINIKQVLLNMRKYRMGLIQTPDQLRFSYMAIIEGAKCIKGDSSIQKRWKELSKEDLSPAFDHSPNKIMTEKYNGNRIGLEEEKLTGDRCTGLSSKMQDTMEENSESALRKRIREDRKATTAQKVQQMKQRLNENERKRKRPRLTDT

| SMILES | IC50 [1] [nM] | IC50 [2] [nM] |
| --- | --- | --- |
| NC(=O)c1cc(OCc2cc(C(F)(F)F)cc(C(F)(F)F)c2)c2sc(C(F)(F)P(=O)(O)O)c(Br)c2c1 [Compound 384] | 299 | 351 |
| O=C(NCc1cc[nH]n1)c1cc(OCCCC(F)(F)F)c2sc(C(F)(F)P(=O)(O)O)c(Br)c2c1 [Compound 201] | 10.9 | 9.06 |
| N#Cc1c(C(F)(F)P(=O)(O)O)sc2c(OCC3CC3(F)F)cc(C(N)=O)cc12 (centres unmarked) [Compound 425] | 30.8 | 22.8 |
| COc1cc(C(=O)NCc2cccnn2)cc2c(Br)c(C(F)(F)P(=O)(O)O)sc12 [Compound 163] | 436 | 301 |
| Cc1cc(C)c(COc2cc(C(N)=O)cc3c(Br)c(C(F)(F)P(=O)(O)O)sc23)c(C)c1 [Compound 352] | 692 | 364 |
| O=P(O)(O)C(F)(F)c1sc2c(OCC3CC3(F)F)cc(-c3nc[nH]n3)cc2c1Br (centres unmarked) [Compound 441] | 2.5 | 2.5 |
| O=C(N[C@H]1Cc2ccc(F)cc21)c1ccc2sc(C(F)(F)P(=O)(O)O)c(Br)c2c1 [Compound 15] | 5620 | 6160 |
| CCCC(C)Oc1cc(C(N)=O)cc2c(Br)c(C(F)(F)P(=O)(O)O)sc12 (centres unmarked) [Compound 370] | 133 | 140 |
| CC(NC(=O)c1ccc2sc(C(F)(F)P(=O)(O)O)c(Br)c2c1)c1cccc2ccccc12 (centres unmarked) [Compound 71] | 3650 | 3530 |
| NC(=O)c1cc(OCC23COC(CF)(C2)C3)c2sc(C(F)(F)P(=O)(O)O)c(Br)c2c1 [Compound 290] | 11 | 9.74 |
| O=C(NCC1CC1)c1ccc2sc(C(F)(F)P(=O)(O)O)c(Br)c2c1 [Compound 16] | 5120 | 7250 |
| NC(=O)c1cc(OC[C@H]2C[C@H](S(N)(=O)=O)C2)c2sc(C(F)(F)P(=O)(O)O)c(Br)c2c1 [Compound 381] | 2.5 | 2.5 |
| O=C(NCCC1CCCCC1)c1ccc2sc(C(F)(F)P(=O)(O)O)c(Br)c2c1 [Compound 53] | 3240 | 4110 |
| NC(=O)c1cc(OCc2cc(F)cc(C(F)(F)F)c2)c2sc(C(F)(F)P(=O)(O)O)c(Br)c2c1 [Compound 247] | 94.2 | 54.4 |
| NC(=O)c1cc(OCCCC2(S(N)(=O)=O)CC2)c2sc(C(F)(F)P(=O)(O)O)c(Br)c2c1 [Compound 335] | 5.4 | 4.4 |
| CC(C)(O)CCOc1ccc2c(Br)c(C(F)(F)P(=O)(O)O)sc2c1 [Compound 302, ((3-bromo-6-(3-hydroxy-3-methylbutoxy)benzo[b]thiophen-2-yl)difluoromethyl)phosphonic acid] | 37900 | 43700 |
| C[Si](C)(C)CCc1cc(C(N)=O)cc2c(Br)c(C(F)(F)P(=O)(O)O)sc12 [Compound 314] | 47.5 | 52.6 |
| CC(C)(O)CCOc1cc(C(N)=O)cc2c(Br)c(C(F)(F)P(=O)(O)O)sc12 [Compound 170] | 518 | 636 |
| O=C(N[C@@H]1CCCC[C@H]1c1ccccc1)c1ccc2sc(C(F)(F)P(=O)(O)O)c(Br)c2c1 [Compound 86] | 3780 | 1450 |
| O=C(NCc1cnsn1)c1ccc2sc(C(F)(F)P(=O)(O)O)c(Br)c2c1 [Compound 188] | 714 | 1410 |
| O=C(NCC1CCCN(c2ncccn2)C1)c1ccc2sc(C(F)(F)P(=O)(O)O)c(Br)c2c1 (centres unmarked) [Compound 114] | 3500 | 5170 |
| NC(=O)c1cc(OCC2CC(OC(F)(F)F)C2)c2sc(C(F)(F)P(=O)(O)O)c(Br)c2c1 (centres unmarked) [Compound 280] | 62 | 99.4 |
| NC(=O)c1cc(OCCCCC(F)(F)C(F)(F)F)c2sc(C(F)(F)P(=O)(O)O)c(Br)c2c1 [Compound 285] | 45 | 77.9 |
| NC(=O)c1cc(OCc2ccc(CS(N)(=O)=O)cc2)c2sc(C(F)(F)P(=O)(O)O)c(Br)c2c1 [Compound 376] | 32.6 | 37.9 |
| O=P(O)(O)C(F)(F)c1sc2c(OCCCC(F)(F)F)cc(-c3nnc(C(F)(F)F)[nH]3)cc2c1Br [Compound 420, ((3-bromo-7-(4,4,4-trifluorobutoxy)-5-(5-(trifluoromethyl)-4H-1,2,4-triazol-3-yl)benzo[b]thiophen-2-yl)difluoromethyl)phosphonic acid] | 2.7 | 2.85 |
| O=C(O)c1cc(OCCCC(F)(F)F)c2sc(C(F)(F)P(=O)(O)O)c(Br)c2c1 [Compound 407] | 191 | 200 |
| Cc1noc(C)c1CCNC(=O)c1ccc2sc(C(F)(F)P(=O)(O)O)c(Br)c2c1 [Compound 43] | 4900 | 6530 |
| CC(C)CCOc1cc(C(N)=O)cc2c(Br)c(C(F)(F)P(=O)(O)O)sc12 [Compound 254] | 155 | 111 |

| SMILES | IC50 [1] [nM] | IC50 [2] [nM] |
| --- | --- | --- |
| O=C(NCc1cncc(F)c1)c1ccc2sc(C(F)(F)P(=O)(O)O)c(Br)c2c1 [Compound 135] | 1920 | 1900 |
| CCOc1cc(C(N)=O)cc2c(Br)c(C(F)(F)P(=O)(O)O)sc12 [Compound 238] | 327 | 227 |
| CCOCCCOc1cc(C(N)=O)cc2c(Br)c(C(F)(F)P(=O)(O)O)sc12 [Compound 273] | 93 | 132 |
| O=C(Nc1cccc(CO)n1)c1ccc2sc(C(F)(F)P(=O)(O)O)c(Br)c2c1 [Compound 104] | 9150 | 6500 |
| NC(=O)c1cc(OCc2ccccc2F)c2sc(C(F)(F)P(=O)(O)O)c(Br)c2c1 [Compound 242] | 79.6 | 60 |
| Cc1c[nH]c(CNC(=O)c2ccc3sc(C(F)(F)P(=O)(O)O)c(Br)c3c2)n1 [Compound 198] | 5710 | 5460 |
| O=C(NC1COc2ccccc2C1)c1ccc2sc(C(F)(F)P(=O)(O)O)c(Br)c2c1 (centres unmarked) [Compound 110] | 3200 | 3560 |
| NC(=O)c1cc(OCC2CC3(CCC3)C2)c2sc(C(F)(F)P(=O)(O)O)c(Br)c2c1 [Compound 284] | 42 | 64.5 |
| CC(NC(=O)c1ccc2sc(C(F)(F)P(=O)(O)O)c(Br)c2c1)c1cncnc1 (centres unmarked) [Compound 138] | 2080 | 2910 |
| N#CCCCCCCOc1cc(C(N)=O)cc2c(Br)c(C(F)(F)P(=O)(O)O)sc12 [Compound 243] | 68.4 | 47.9 |
| O=C(Nc1ccc2c(Br)c(C(F)(F)P(=O)(O)O)sc2c1)c1ccccc1 [Compound 303, ((6-benzamido-3-bromobenzo[b]thiophen-2-yl)difluoromethyl)phosphonic acid] | 2690 | 24700 |
| Cc1c(C(F)(F)P(=O)(O)O)sc2c(OCCCS(N)(=O)=O)cc(-c3nc[nH]n3)cc12 [Compound 443] | 5.1 | 6.17 |
| CC(Cn1cncn1)NC(=O)c1ccc2sc(C(F)(F)P(=O)(O)O)c(Br)c2c1 (centres unmarked) [Compound 145] | 4590 | 6980 |
| CC(C)(O)c1ccc(CNC(=O)c2ccc3sc(C(F)(F)P(=O)(O)O)c(Br)c3c2)cn1 [Compound 92] | 1940 | 3160 |
| O=C(NCc1c[nH]cn1)c1ccc2sc(C(F)(F)P(=O)(O)O)c(Br)c2c1 [Compound 218] | 2900 | 2050 |
| Cc1nn(C)c(C)c1CNC(=O)c1ccc2sc(C(F)(F)P(=O)(O)O)c(Br)c2c1 [Compound 124] | 6120 | 7380 |
| NC(=O)c1cc(OCc2ccc3c(c2)CCS3(=O)=O)c2sc(C(F)(F)P(=O)(O)O)c(Br)c2c1 [Compound 386] | 26 | 17.1 |
| NC(=O)c1cc(OCCC2CC2)c2sc(C(F)(F)P(=O)(O)O)c(Br)c2c1 [Compound 255] | 139 | 96.4 |
| COCCN(CCOC)C(=O)c1ccc2sc(C(F)(F)P(=O)(O)O)c(Br)c2c1 [Compound 7, ((5-(bis(2-methoxyethyl)carbamoyl)-3-bromobenzo[b]thiophen-2-yl)difluoromethyl)phosphonic acid] | 764 | 1330 |
| O=C(NC1CCN(Cc2ccccc2)C1)c1ccc2sc(C(F)(F)P(=O)(O)O)c(Br)c2c1 (centres unmarked) [Compound 67] | 3180 | 4890 |
| O=P(O)(O)C(F)(F)c1sc2c(OCCCC(F)(F)F)cc(CO)cc2c1Br [Compound 408] | 518 | 684 |
| CNS(=O)(=O)c1cc(OCCCC(F)(F)F)c2sc(C(F)(F)P(=O)(O)O)c(Br)c2c1 [Compound 459, ((3-bromo-5-(N-methylsulfamoyl)-7-(4,4,4-trifluorobutoxy)benzo[b]thiophen-2-yl)difluoromethyl)phosphonic acid] | 616 | 892 |
| CNC(=O)c1cc(OCCCCS(C)(=O)=O)c2sc(C(F)(F)P(=O)(O)O)c(Br)c2c1 [Compound 324] | 41 | 29.9 |
| O=C(N[C@@H]1CCC[C@H]1OCc1ccccc1)c1ccc2sc(C(F)(F)P(=O)(O)O)c(Br)c2c1 [Compound 14] | 2690 | 4120 |
| O=C(Nc1ccc(Cn2cccn2)cc1)c1ccc2sc(C(F)(F)P(=O)(O)O)c(Br)c2c1 [Compound 64] | 1440 | 1800 |
| O=C(NCCn1nnc2ccccc21)c1ccc2sc(C(F)(F)P(=O)(O)O)c(Br)c2c1 [Compound 89] | 5120 | 6040 |
| O=C(NC(c1cccnc1)C(F)(F)F)c1ccc2sc(C(F)(F)P(=O)(O)O)c(Br)c2c1 (single isomer, unassigned) [Compound 222a, (S or R)-((3-bromo-5-((2,2,2-trifluoro-1-(pyridin-3-yl)ethyl)carbamoyl)benzo[b]thiophen-2-yl)difluoromethyl)phosphonic acid] | 1620 | 1880 |
